Laboratory results as given in patent US8575364B2, “Modulators of serotonin receptor” (Janssen Pharmaceutica NV, priority 2008, dated 2013).
Where a name gives a salt, the structure may show the parent alone.

Molecular target: rat 5-HT7 receptors (Rattus norvegicus (Rat), UniProt P32305)
Assay: r5-HT7 competitive radioligand binding assay ([3H]5-CT)
Conditions: membrane fractions of HEK-293 cells recombinantly expressing rat 5-HT7
Description: Compound affinity for the rat 5-HT7 receptor subtype was evaluated by competitive radioligand binding assays using 5-carboxamido[^3H]tryptamine ([^3H]5-CT) (Amersham Biosciences, cat. 90000403) detection. HitHunter™ cAMP assays are in-vitro based competitive immunoassays. […] Cells were pre-incubated with test compounds for 10 minutes. For agonistic testing, the concentration of test compound that produced a half-maximal response is represented by the EC50 value. Compounds were assayed in their free form or as salts, as indicated in the Examples section above.

Chain of rat 5-HT7 receptors (P32305 1-435): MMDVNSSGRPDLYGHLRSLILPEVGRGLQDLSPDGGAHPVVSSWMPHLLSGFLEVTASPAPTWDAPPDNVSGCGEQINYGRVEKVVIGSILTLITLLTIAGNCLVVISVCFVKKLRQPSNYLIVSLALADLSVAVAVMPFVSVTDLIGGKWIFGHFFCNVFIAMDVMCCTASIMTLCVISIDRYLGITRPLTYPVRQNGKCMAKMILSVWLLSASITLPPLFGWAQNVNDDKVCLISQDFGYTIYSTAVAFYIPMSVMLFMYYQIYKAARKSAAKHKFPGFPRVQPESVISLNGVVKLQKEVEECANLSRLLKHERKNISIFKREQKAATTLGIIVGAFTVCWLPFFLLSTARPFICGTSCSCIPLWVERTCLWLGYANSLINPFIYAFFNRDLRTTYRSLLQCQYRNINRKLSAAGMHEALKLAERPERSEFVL

| SMILES | Ki |
| --- | --- |
| COc1ccc(-c2ccccc2C)cc1C1CCNC1 (racemic) [Example 43, (±)-3-(4-Methoxy-2′-methyl-biphenyl-3-yl)-pyrrolidine] | 5.46 nM |
| COc1ccc(-c2cccc(F)c2C)cc1C1CCNC1 (racemic) [Example 44, (±)-3-(3′-Fluoro-4-methoxy-2′-methyl-biphenyl-3-yl)-pyrrolidine] | 19 nM |
| COc1ccc(-c2cccc(F)c2F)cc1C1CCNC1 (racemic) [Example 45, (±)-3-(2′,3′-Difluoro-4-methoxy-biphenyl-3-yl)-pyrrolidine] | 52 nM |
| COc1ccc(-c2cccc(C(F)(F)F)c2)cc1C1CCNC1 (racemic) [Example 46, (±)-3-(4-Methoxy-3′-trifluoromethyl-biphenyl-3-yl)-pyrrolidine] | 117 nM |
| COc1ccc(-c2ccccc2C(F)(F)F)cc1C1CCNC1 (racemic) [Example 47, (±)-3-(4-Methoxy-2′-trifluoromethyl-biphenyl-3-yl)-pyrrolidine] | 7.98 nM |
| COc1ccc(-c2ccccc2OC(F)(F)F)cc1C1CCNC1 (racemic) [Example 48, (±)-3-(4-Methoxy-2′-trifluoromethoxy-biphenyl-3-yl)-pyrrolidine] | 19.8 nM |
| COc1ccc(-c2ccccc2)cc1C1CCNC1 (racemic) [Example 49, (±)-3-(4-Methoxy-biphenyl-3-yl)-pyrrolidine] | 130 nM |
| COc1ccc(-c2ccccc2)cc1C1CCN(C)C1 (racemic) [Example 50, (±)-3-(4-Methoxy-biphenyl-3-yl)-1-methyl-pyrrolidine] | 150 nM |
| c1ccc(-c2ccccc2C2CCNC2)cc1 (racemic) [Example 51, (±)-3-Biphenyl-2-yl-pyrrolidine] | 120 nM |
| Cc1cccc(-c2ccccc2C2CCNC2)c1 (racemic) [Example 52, (±)-3-(3′-Methyl-biphenyl-2-yl)-pyrrolidine] | 80.2 nM |
| Cc1ccc(-c2ccccc2C2CCNC2)cc1 (racemic) [Example 54, (±)-3-(4′-Methyl-biphenyl-2-yl)-pyrrolidine] | 120 nM |
| Cc1ccc(-c2ccccc2C2CCN(C)C2)cc1 (racemic) [Example 55, (±)-1-Methyl-3-(4′-methyl-biphenyl-2-yl)-pyrrolidine] | 430 nM |
| Cc1ccc(-c2ccccc2C2CCNC2)cc1C (racemic) [Example 57, (±)-3-(3′,4′-Dimethyl-biphenyl-2-yl)-pyrrolidine] | 55.9 nM |
| Cc1ccccc1-c1ccccc1C1CCNC1 (racemic) [Example 59, (±)-3-(2′-Methyl-biphenyl-2-yl)-pyrrolidine] | 210 nM |
| Cc1ccccc1-c1ccccc1C1CCN(C)C1 (racemic) [Example 60, (±)-1-Methyl-3-(2′-methyl-biphenyl-2-yl)-pyrrolidine] | 330 nM |
| COc1ccccc1-c1ccccc1C1CCNC1 (racemic) [Example 61, (±)-3-(2′-Methoxy-biphenyl-2-yl)-pyrrolidine] | 300 nM |
| COc1ccccc1-c1ccccc1C1CCN(C)C1 (racemic) [Example 62, (±)-3-(2′-Methoxy-biphenyl-2-yl)-1-methyl-pyrrolidine] | 730 nM |
| COc1ccc(C)cc1-c1ccccc1C1CCNC1 (racemic) [Example 63, (±)-3-(2′-Methoxy-5′-methyl-biphenyl-2-yl)-pyrrolidine] | 1700 nM |
| Clc1cccc(-c2ccc(Cl)cc2C2CCNC2)c1 (racemic) [Example 65, (±)-3-(4,3′-Dichloro-biphenyl-2-yl)-pyrrolidine] | 130 nM |
| Cc1cc(-c2ccc(Cl)cc2C2CCNC2)ccc1F (racemic) [Example 66, (±)-3-(4-Chloro-4′-fluoro-3′-methyl-biphenyl-2-yl)-pyrrolidine] | 380 nM |
| Cc1ccc(-c2ccc(Cl)cc2C2CCNC2)cc1C (racemic) [Example 67, (±)-3-(4-Chloro-3′,4′-dimethyl-biphenyl-2-yl)-pyrrolidine] | 120 nM |
| COc1ccc(-c2ccc(F)cc2C)cc1OC1CNC1 [Example 2, 3-(4′-Fluoro-4-methoxy-2′-methyl-biphenyl-3-yloxy)-azetidine] | 21 nM |
| COc1ccc(-c2ccccc2C#N)cc1OC1CNC1 [Example 3, 3′-(Azetidin-3-yloxy)-4′-methoxy-biphenyl-2-carbonitrile trifluoroacetate] | 33.9 nM |
| COc1ccc(-c2c(C)cccc2C)cc1OC1CNC1 [Example 6, 3-(4-Methoxy-2′,6′-dimethyl-biphenyl-3-yloxy)-azetidine trifluoroacetate] | 8.2 nM |
| COc1ccc(-c2ccccc2OC(F)(F)F)cc1OC1CNC1 [Example 7, 3-(4-Methoxy-2′-trifluoromethoxy-biphenyl-3-yloxy)-azetidine] | 10 nM |
| COc1ccc(-c2ccccc2OC)cc1OC1CNC1 [Example 9, 3-(4,2′-Dimethoxy-biphenyl-3-yloxy)-azetidine] | 50 nM |
| COc1ccc(-c2c(Cl)cccc2C(F)(F)F)cc1OC1CNC1 [Example 10, 3-(2′-Chloro-4-methoxy-6′-trifluoromethyl-biphenyl-3-yloxy)-azetidine trifluoroacetate] | 112 nM |

| SMILES | Ki |
| --- | --- |
| COc1ccc(-c2ccc(C)cc2)cc1OC1CNC1 [Example 11, 3-(4-Methoxy-4′-methyl-biphenyl-3-yloxy)-azetidine] | 760 nM |
| COc1ccc(-c2ccc(F)c(C)c2)cc1OC1CNC1 [Example 12, 3-(4′-Fluoro-4-methoxy-3′-methyl-biphenyl-3-yloxy)-azetidine] | 770 nM |
| COc1ccc(-c2cccc(C)c2)cc1OC1CNC1 [Example 13, 3-(4-Methoxy-3′-methyl-biphenyl-3-yloxy)-azetidine] | 1000 nM |
| COc1ccc(-c2ccc(C)c(C)c2)cc1OC1CNC1 [Example 14, 3-(4-Methoxy-3′,4′-dimethyl-biphenyl-3-yloxy)-azetidine] | 250 nM |
| COc1ccc(-c2ccccc2)cc1OC1CNC1 [Example 15, 3-(4-Methoxy-biphenyl-3-yloxy)-azetidine] | 120 nM |
| COc1ccc(-c2cc(C)ccc2C)cc1OC1CNC1 [Example 16, 3-(4-Methoxy-2′,5′-dimethyl-biphenyl-3-yloxy)-azetidine] | 114 nM |
| COc1ccc(-c2ccccc2Cl)cc1OC1CN(C(C)C)C1 [Example 18, 3-(2′-Chloro-4-methoxy-biphenyl-3-yloxy)-1-isopropyl-azetidine trifluoroacetate] | 533 nM |
| COc1ccc(-c2ccccc2Cl)cc1OC1CN(C2CCC2)C1 [Example 19, 3-(2′-Chloro-4-methoxy-biphenyl-3-yloxy)-1-cyclobutyl-azetidine trifluoroacetate] | 300 nM |
| FC(F)(F)c1ccccc1-c1cccc(OC2CNC2)c1 [Example 20, 3-(2′-Trifluoromethyl-biphenyl-3-yloxy)-azetidine] | 25.5 nM |
| Clc1ccccc1-c1cccc(OC2CNC2)c1 [Example 21, 3-(2′-Chloro-biphenyl-3-yloxy)-azetidine] | 34.6 nM |
| Cc1cccc(-c2cccc(OC3CNC3)c2)c1 [Example 22, 3-(3′-Methyl-biphenyl-3-yloxy)-azetidine] | 752 nM |
| Cc1ccccc1-c1cccc(OC2CNC2)c1 [Example 23, 3-(2′-Methyl-biphenyl-3-yloxy)-azetidine] | 67 nM |
| Clc1ccc(-c2ccccc2Cl)cc1OC1CNC1 [Example 24, 3-(4,2′-Dichloro-biphenyl-3-yloxy)-azetidine trifluoroacetate] | 8.89 nM |
| FC(F)(F)c1ccccc1-c1ccc(Cl)c(OC2CNC2)c1 [Example 25, 3-(4-Chloro-2′-trifluoromethyl-biphenyl-3-yloxy)-azetidine trifluoroacetate] | 10.5 nM |
| Cc1ccccc1-c1ccc(Cl)c(OC2CNC2)c1 [Example 26, 3-(4-Chloro-2′-methyl-biphenyl-3-yloxy)-azetidine trifluoroacetate] | 15.5 nM |
| Cc1cccc(-c2ccc(Cl)c(OC3CNC3)c2)c1 [Example 27, 3-(4-Chloro-3′-methyl-biphenyl-3-yloxy)-azetidine trifluoroacetate] | 410 nM |
| N#Cc1ccc(-c2ccccc2C(F)(F)F)cc1OC1CNC1 [Example 28, 3-(Azetidin-3-yloxy)-2′-trifluoromethyl-biphenyl-4-carbonitrile] | 127 nM |
| N#Cc1ccc(-c2ccccc2)cc1OC1CNC1 [Example 29, 3-(Azetidin-3-yloxy)-biphenyl-4-carbonitrile] | 10000 nM |
| Cc1ccccc1-c1ccc(C#N)c(OC2CNC2)c1 [Example 30, 3-(Azetidin-3-yloxy)-2′-methyl-biphenyl-4-carbonitrile] | 508 nM |
| CCOc1ccc(-c2ccccc2C)cc1OC1CNC1 [Example 32, 3-(4-Ethoxy-2′-methyl-biphenyl-3-yloxy)-azetidine hydrochloride] | 454 nM |
| Cc1ccccc1-c1ccc(OCC(F)(F)F)c(OC2CNC2)c1 [Example 33, 3-[2′-Methyl-4-(2,2,2-trifluoro-ethoxy)-biphenyl-3-yloxy]-azetidine] | 525 nM |
| Cc1ccccc1-c1ccc(OC2CCC2)c(OC2CNC2)c1 [Example 34, 3-(4-Cyclobutoxy-2′-methyl-biphenyl-3-yloxy)-azetidine] | 667 nM |
| Cc1ccccc1-c1ccc(OCC2CC2)c(OC2CNC2)c1 [Example 35, 3-(4-Cyclopropylmethoxy-2′-methyl-biphenyl-3-yloxy)-azetidine] | 755 nM |
| Cc1ccccc1-c1ccc(OC(C)C)c(OC2CNC2)c1 [Example 36, 3-(4-Isopropoxy-2′-methyl-biphenyl-3-yloxy)-azetidine] | 10000 nM |
| CCN(CC)C(=O)c1ccc(-c2ccccc2C(F)(F)F)cc1OC1CNC1 [Example 37, 3-(Azetidin-3-yloxy)-2′-trifluoromethyl-biphenyl-4-carboxylic acid diethylamide] | 2270 nM |
| Cc1cccc(-c2ccc(Cl)cc2OC2CNC2)c1 [Example 38, 3-(4-Chloro-3′-methyl-biphenyl-2-yloxy)-azetidine] | 189 nM |
